Assays:
Assay in all cases: relative viability (nuclei count vs DMSO), 5 days (fraction); higher = more cells survive
Venetoclax + Palbociclib = compound: CC1(C)CCC(CN2CCN(c3ccc(C(=O)NS(=O)(=O)c4ccc(NCC5CCOCC5)c([N+](=O)[O-])c4)c(Oc4cnc5[nH]ccc5c4)c3)CC2)=C(c2ccc(Cl)cc2)C1 [Venetoclax] + CC(=O)c1c(C)c2cnc(Nc3ccc(N4CCNCC4)cn3)nc2n(C2CCCC2)c1=O [Palbociclib] (partner 0.5 µM)
How it was run: (§1)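 One day after seeding in 1536-well plates, lung cancer cell lines were dosed by pin tool. Dosing was either single-drug or a fixed anchor-drug dose plus five library-drug doses (not always all listed) in √10 steps. After 5 days, nuclei were stained in one fix-and-stain step and counted on 4× images, and relative viability is the nuclei count of treated wells over that of vehicle wells, given as the median of duplicate plates.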

Venetoclax + Crizotinib = compound: CC1(C)CCC(CN2CCN(c3ccc(C(=O)NS(=O)(=O)c4ccc(NCC5CCOCC5)c([N+](=O)[O-])c4)c(Oc4cnc5[nH]ccc5c4)c3)CC2)=C(c2ccc(Cl)cc2)C1 [Venetoclax] + C[C@@H](Oc1cc(-c2cnn(C3CCNCC3)c2)cnc1N)c1c(Cl)ccc(F)c1Cl [Crizotinib] (partner 1 µM)
How it was run: as §1

Selumetinib + Vorinostat = compound: Cn1cnc2c(F)c(Nc3ccc(Br)cc3Cl)c(C(=O)NOCCO)cc21 [Selumetinib] + O=C(CCCCCCC(=O)Nc1ccccc1)NO [Vorinostat] (partner 1 µM)
How it was run: as §1

Selumetinib + Bortezomib = compound: Cn1cnc2c(F)c(Nc3ccc(Br)cc3Cl)c(C(=O)NOCCO)cc21 [Selumetinib] + CC(C)C[C@H](NC(=O)[C@H](Cc1ccccc1)NC(=O)c1cnccn1)B(O)O [Bortezomib] (partner 0.002 µM)
How it was run: as §1

Cell Line | relative viability (Venetoclax + Palbociclib; first compound 0.01 µM) | relative viability (Venetoclax + Palbociclib; first compound 0.03162 µM) | relative viability (Venetoclax + Palbociclib; first compound 0.1 µM) | relative viability (Venetoclax + Palbociclib; first compound 0.3162 µM) | relative viability (Venetoclax + Palbociclib; first compound 1 µM) | relative viability (Venetoclax + Crizotinib; first compound 0.01 µM) | relative viability (Venetoclax + Crizotinib; first compound 0.03162 µM) | relative viability (Venetoclax + Crizotinib; first compound 0.1 µM) | relative viability (Venetoclax + Crizotinib; first compound 0.3162 µM) | relative viability (Venetoclax + Crizotinib; first compound 1 µM) | relative viability (Selumetinib + Vorinostat; first compound 0.02 µM) | relative viability (Selumetinib + Vorinostat; first compound 0.06325 µM) | relative viability (Selumetinib + Vorinostat; first compound 0.2 µM) | relative viability (Selumetinib + Vorinostat; first compound 0.6325 µM) | relative viability (Selumetinib + Bortezomib; first compound 0.02 µM) | relative viability (Selumetinib + Bortezomib; first compound 0.06325 µM) | relative viability (Selumetinib + Bortezomib; first compound 0.2 µM) | relative viability (Selumetinib + Bortezomib; first compound 0.6325 µM)
NCI-H1437 | 0.314 | 0.303 | 0.282 | 0.285 | 0.251 | 0.851 | 0.941 | 0.949 | 0.899 | 0.864 | 0.749 | 0.7 | 0.576 | 0.429 | 0.486 | 0.378 | 0.316 | 0.276
NCI-H1650 | 0.315 | 0.364 | 0.323 | 0.419 | 0.306 | 0.831 | 0.986 |  | 0.74 | 0.842 | 0.569 | 0.526 | 0.408 | 0.587 | 0.199 | 0.172 | 0.215 | 0.222
NCI-H1651 | 0.529 | 0.537 | 0.536 | 0.545 | 0.528 | 0.866 | 0.856 | 0.879 | 0.889 | 0.825 | 0.554 | 0.552 | 0.564 | 0.572 | 1.08 | 0.861 | 0.873 | 0.818
NCI-H1666 | 0.625 | 0.656 | 0.631 | 0.627 | 0.656 | 0.94 | 0.985 | 1.02 | 1 | 0.916 | 1.02 | 0.902 | 1.06 | 0.86 | 0.595 | 0.586 | 0.63 | 0.495
NCI-H1734 | 0.331 | 0.383 | 0.346 | 0.394 | 0.318 | 0.733 | 0.833 | 0.724 | 0.73 | 0.614 | 0.787 | 0.814 | 0.694 | 0.85 | 1.04 | 0.819 | 1.02 | 0.835
NCI-H1755 | 0.463 | 0.469 | 0.481 | 0.461 | 0.448 | 0.769 | 0.885 | 0.872 | 0.863 | 0.779 | 0.821 | 0.68 | 0.726 | 0.852 | 0.952 | 0.859 | 0.834 | 0.914
NCI-H1915 | 0.477 | 0.558 | 0.541 | 0.524 | 0.495 | 0.882 | 0.862 | 0.811 | 0.836 | 0.805 | 0.598 | 0.492 | 0.504 | 0.377 | 1.07 | 0.877 | 0.747 | 0.617
NCI-H1975 | 0.667 | 0.672 | 0.506 | 0.515 | 0.534 | 1.13 | 0.907 | 0.974 | 0.879 | 0.867 | 0.726 | 0.605 | 0.582 | 0.473 | 0.324 | 0.282 | 0.262 | 0.221
NCI-H1993 | 0.643 | 0.652 | 0.717 | 0.616 | 0.541 | 0.854 | 0.851 | 0.906 | 0.838 | 0.774 | 0.85 | 0.6 | 0.597 | 0.612 | 0.861 | 0.897 | 0.873 | 0.806
NCI-H2009 | 0.264 | 0.228 | 0.258 | 0.216 | 0.203 | 0.99 | 1.01 | 0.954 | 1.01 | 0.968 | 0.675 | 0.717 | 0.65 | 0.377 | 0.788 | 0.591 | 0.538 | 0.362
NCI-H2023 | 0.382 | 0.338 | 0.349 | 0.329 | 0.33 | 0.541 | 0.737 | 0.721 | 0.552 | 0.53 | 0.617 | 0.554 | 0.524 | 0.559 | 0.899 | 0.785 | 0.895 | 0.896
NCI-H2085 | 0.441 | 0.471 | 0.486 | 0.454 | 0.47 | 0.815 | 0.903 | 0.765 | 1.02 | 0.745 | 0.76 | 0.757 | 0.739 | 0.718 | 1 | 0.947 | 0.926 | 0.916
NCI-H2087 | 0.257 | 0.257 | 0.235 | 0.249 | 0.188 | 0.931 | 0.805 | 1.11 | 1.03 | 0.863 | 0.582 | 0.258 | 0.514 | 0.445 | 0.626 | 0.542 | 0.456 | 0.351
NCI-H2126 | 0.368 | 0.34 | 0.363 | 0.374 | 0.336 | 0.986 | 1.02 | 1.04 | 0.971 | 0.969 | 0.727 | 0.664 | 0.595 | 0.583 | 1.09 | 1.01 | 0.984 | 0.996
NCI-H2228 | 0.708 | 0.776 | 0.566 | 0.687 | 0.746 | 0.432 | 0.519 | 0.538 | 0.427 | 0.544 | 0.744 | 0.627 | 0.63 | 0.619 | 0.923 | 0.989 | 0.75 | 0.584
NCI-H2347 | 0.41 | 0.388 | 0.322 | 0.483 | 0.414 | 0.74 | 0.81 | 0.726 | 0.533 | 0.677 | 0.521 | 0.467 | 0.36 | 0.283 | 0.755 | 0.817 | 0.6 | 0.45
NCI-H2405 | 0.52 | 0.533 | 0.531 | 0.529 | 0.513 | 0.856 | 0.881 | 0.771 | 0.824 | 0.79 | 1.18 | 1.04 | 0.818 | 0.987 | 0.971 | 0.928 | 0.858 | 0.744

— the supplement of paper PMC10307832
